Laboratory results from patent US11759437B2, “Preventive and therapeutic approach for aberrant cell differentiation and ISR-associated diseases” (The University of Hong Kong, priority 2016, dated 2023).

How the values were obtained:
13del mice = assay type: in vivo
wild-type mice = assay: ISRIB treatment of wild-type littermates; assay type: in vivo, mouse
Method: The potential of ISRIB to modify the chondrodysplasia phenotype was tested by treating 13del and wild-type littermates with ISRIB or vehicle twice daily by intraperitoneal injection from E13.5 (onset of expression of 13del transgene) to postnatal day 20 (p20) (FIG. 8A).
ISRIB (SML0843, Sigma) was dissolved in DMSO to make a 5 mg/ml stock and stored at 4-degree. Animals were intraperitoneally injected with ISRIB ((103, 104) (2.5 mg/kg, diluted in 0.9% saline) or vehicle (5% DMSO in saline) from E13.5 till p20 stage. The animals were collected at p10 and p20 stages for further analysis.

mice = conditions: cited from earlier work
[1] = tested on: Mouse models of chondrodysplasia; conditions: cited from earlier work
Fgf21 = Fgf21 expression after ER stress inducer tunicamycin in fibroblasts and ATDC5 cells; assay type: cell-based, mouse; conditions: NIH3T3 and MEF cells and ATDC5 cells, tunicamycin treatment
Method: FGF21 is a hormone with roles in glucose and lipid metabolism (74) and plays an survival role in the response to diverse stressful conditions, such as amino acid deprivation, mitochondrial stress and ER stress associated with diseases such as diabetes, cardiovascular disease (75-77).
Quantitative PCR was performed using SYBR-Green master mixture according to the manufacturer's instruction (Takara). Appropriate amounts of cDNA (or DNA) and primers were mixed with distilled water up to 10 μl and combined with equal amount of SYBR-Green master mixture. The reaction was run on the StepOne Real Time PCR system (Applied Biosystems, A&B). The Ct (cycle threshold) is defined as the cycle number required for the fluorescent signal to cross the threshold. The relative expression levels of target genes are calculated by normalizing to the expression level of GAPDH using delta-delta-Ct (Relative expression level=2^−(Cttarget−CtGapdh)). Melting curve was also measured to detect the specificity of the primers.

[2] = tested on: congenital skeletal dysplasias; conditions: cited from earlier work
prion-infected mice = conditions: cited from earlier work
[3] = 13del mice, after 20-days ISRIB treatment

Compound: O=C(COc1ccc(Cl)cc1)N[C@H]1CC[C@H](NC(=O)COc2ccc(Cl)cc2)CC1 [ISRIB]
- amount of ATF4 and CHOP protein (13del mice; 13del HZ, p10): reduced
- transcripts and protein level of downstream targets (ATF3, ERO1l and FGF21) (13del mice; 13del HZ, p10): down-regulation
- Atf3+ cells in L3-L6 NP, growth plates or endplates (13del mice; 13del lumbar IVD, after ISRIB treatment): no Atf3^+ cell can be detected
- ectopic NP expression of Opn (13del mice; 13del lumbar NP, 20-days treatment): greatly reduced
- number of reprogrammed chondrocytes in the growth plates and endplates (13del mice; 13del mice): reduced
- chondrocyte-like cells present in iAF (13del mice; [3]): fewer
- regularity of inner annulus fibrosus (iAF) (13del mice; [3]): more regular
- Bip transcripts in HZ (13del mice; 13del mice, p10, in situ hybridization): not affected
- HZ expansion in tail intervertebral disc growth plates (13del mice; 13del mice, p10 and p20): reduced
- HZ expansion in the limb growth plates (13del mice; 13del mice, p10 and p20): greatly reduced
- number of SOX9+, Col2a1+ and Ppr+ cells in the HZ (13del mice; 13del mice, p10 and p20): diminished
- number of Sox9+ and Col2a1+ premature cells in tail intervertebral disc growth plates (13del mice; 13del mice, p10 and p20): decreased
- IVD abnormalities in 13del lumbar spine (endplate expansion, iAF structure) (13del mice; ISRIB 2.5 mg/kg): eased
- overall adverse effect in treated mice (13del mice; ISRIB 2.5 mg/kg i.p., E13.5 to p20): without any obvious adverse effect
- apoptosis in 13del HC (13del mice; TUNEL): did not induce apoptosis
- dwarfism of 13del mice (body length) (13del mice; new born to juvenile stages, ISRIB 2.5 mg/kg i.p. twice daily, E13.5 to p20): markedly reduced
- skeletal deformities, radiographic analyses (length of tibia/femur and spine, genu varum, pelvic bone orientation, coxa vara) (13del mice; p20, ISRIB 2.5 mg/kg i.p.): ameliorated
- effect on the limb growth plates in wild-type mice (wild-type mice; histology, p10): no observable effect
- adverse effects on weight gain or body growth (wild-type mice; wild-type mice, ISRIB 2.5 mg/kg i.p. twice daily, E13.5 to p20): no adverse effects
- neurotrophic effects (mice): significant neurotrophic effects
- overall toxicity (mice): no overall toxicity
- pharmacokinetic properties (mice): acceptable

Compound: O=C(O)CCCc1ccccc1 [phenylbutyric acid]
- efficacy in chondrodysplasia [1]: ineffective

Compound: tunicamycin
- increase of Fgf21 expression (Fgf21): > 100 fold

Compound: Growth hormone: Growth hormone (GH) therapy used to treat dwarfism
- effect in cases with severe spinal deformities ([2]; in vivo): worsened kyphosis and lordosis
- efficacy for height gain ([2]; most congenital skeletal dysplasias): ineffective

Compound: Cn1cc(-c2ccc3c(c2)CCN3C(=O)Cc2cccc(C(F)(F)F)c2)c2c(N)ncnc21 [GSK2606414]
- effect of restoring protein synthesis through PERK inhibition (prion-infected mice): neuroprotective
- side effects (prion-infected mice): weight loss and pancreatic toxicity
